PubChem BioAssay AID1996
Converted amounts (≈) assume the structure as drawn.

Conditions: buffer; pH 7.4; 200.0 µM

Row | SMILES | solubility kinetic
1 | COc1cc2c(cc1OC)C(C)N(S(=O)(=O)c1ccc(C)cc1)CC2 (configuration not stated) | 26.8 µg/mL (≈ 74.1 µM)
2 | Clc1ccc(CNc2cnccn2)cc1Cl | > 38.1 µg/mL
3 | O=C(CN1C(=O)NC(Cc2c[nH]c3ccccc23)C1=O)Nc1ccc(F)cc1F (configuration not stated) | 19 µg/mL (≈ 47.7 µM)
4 | COc1ccccc1Oc1ccc2c(c1)C(=O)N(CC(=O)O)C2=O | > 49.1 µg/mL
5 | Cc1cc(SCc2c(F)cccc2Cl)nc(=O)[nH]1 | 39.2 µg/mL (≈ 138 µM)
6 | O=C1NC2(CCCCC2)C(=O)N1CCN1C(=O)c2ccccc2C1=O | 40.1 µg/mL (≈ 117 µM)
7 | Cc1ccc(S(=O)(=O)N2CCOCC2)cc1NC(=O)COC(=O)/C=C/c1ccc(F)cc1 | 10.3 µg/mL (≈ 22.3 µM)
8 | N#Cc1ccc(/C=C/C(=O)c2ccc3c(c2)OCO3)cc1 | 2.9 µg/mL (≈ 10.5 µM)
9 | CCOC(=O)C1=C(C)NC(C)=C(C(=O)OCC)C1C(=O)OCC(=O)NCc1ccc(F)cc1 | > 69.4 µg/mL
10 | Cc1ccccc1OCCC(=O)N1CCN(S(=O)(=O)c2ccccc2F)CC1 | 38.5 µg/mL (≈ 94.7 µM)
11 | CCOP(=O)(OCC)C(O)c1ccc(N(C)C)cc1 (configuration not stated) | > 43.1 µg/mL
12 | Cc1ccc(Cl)cc1Nc1nc(-c2cccnc2)cs1 | 0.2 µg/mL (≈ 0.663 µM)
13 | O=C(NCc1ccccc1)Nc1cccc2ccccc12 | 0.6 µg/mL (≈ 2.17 µM)
14 | Cc1cnc(CNC(=O)c2ccc3oc(C(C)C)nc3c2)[nH]1 | 38.2 µg/mL (≈ 128 µM)
15 | COc1ccc(CNC(=S)Nc2cccc(F)c2)cc1 | 14.6 µg/mL (≈ 50.3 µM)
16 | O=c1c2c3c(sc2[nH]c(=S)n1Cc1ccco1)CCC3 | 34.6 µg/mL (≈ 114 µM)
17 | COc1cc(OC)cc(C(=O)NCCNC(=O)c2ccccn2)c1 | > 49.4 µg/mL
18 | CCCCC(=O)Nc1ccccc1C(C)C | 23.3 µg/mL (≈ 106 µM)
19 | CSc1nccn1C(=O)c1ccccc1[N+](=O)[O-] | > 39.5 µg/mL
20 | O=c1cc(O)c2sc(Nc3ccc(F)cc3)nc2[nH]1 | 0.3 µg/mL (≈ 1.08 µM)
21 | COc1ccc(CNC(=O)Cc2cccs2)cc1OC | 42.6 µg/mL (≈ 146 µM)
22 | Cc1cccc(OCCCn2c(=O)oc3ccccc32)c1 | 4.6 µg/mL (≈ 16.2 µM)
23 | N#CC(CCN1CCOCC1)(c1ccccc1)c1ccccc1 | 43.1 µg/mL (≈ 141 µM)
24 | Cc1ccc(C2NC(=S)NC3=C2C(=O)CCC3)cc1 (configuration not stated) | 9 µg/mL (≈ 33 µM)

Row | SMILES | solubility kinetic
25 | CCC(C)c1ccccc1NC(=O)CN(CC)CC(=O)Nc1ccc2c(c1)OCCO2 (configuration not stated) | 38.3 µg/mL (≈ 90 µM)
26 | O=C(Nc1ccc(N2CCOCC2)cc1)c1cnccn1 | > 42.6 µg/mL
27 | COc1ccc(C2NC(=O)C(C#N)=C(S)N2c2ccccc2)cc1OC (configuration not stated) | > 55.1 µg/mL
28 | CN(CCO)c1cc(N(C)CCO)c([N+](=O)[O-])cc1[N+](=O)[O-] | 42.1 µg/mL (≈ 134 µM)
29 | COc1ccccc1-c1cc(-c2ccccc2)nc(=O)[nH]1 | > 41.7 µg/mL
30 | Cc1cccc(C(=O)OCC(=O)NC(=O)c2ccccc2)c1O | < 0.7 µg/mL
31 | COc1ccc(CN=C(N)N=C(N)N)cc1Cl.Cl | > 43.8 µg/mL
32 | Cn1nccc1C(=O)N1CCN(c2ccccc2Cl)CC1 | > 45.7 µg/mL
33 | COc1cc(C(F)(F)F)ccc1C(=O)NCCc1ccco1 | 42.9 µg/mL (≈ 137 µM)
34 | CCCNC(=O)C(=O)Nc1cc2c3c(c1)CCC(=O)N3CCC2 | > 47.3 µg/mL
35 | COc1ccccc1NC(=O)COC(=O)C1CC2CCCC(C1)C2=O (configuration not stated) | > 51.8 µg/mL
36 | COc1ccc2oc(=O)c(C(=O)NCc3ccccc3)cc2c1 | 0.7 µg/mL (≈ 2.26 µM)
37 | COc1ccc(Cl)cc1NC(=O)COC(=O)Cc1cc(OC)c(OC)c(OC)c1 | 46.6 µg/mL (≈ 110 µM)
38 | Nc1nonc1OCCOCCOCCOc1nonc1N | 45.7 µg/mL (≈ 144 µM)
39 | CC(C)=CC(=O)OCC(=O)NC1CCCc2ccccc21 (configuration not stated) | 25 µg/mL (≈ 87 µM)
40 | Cl.O=S1(=O)CCC(NC2CCCC2)C1 (configuration not stated) | > 36 µg/mL
41 | CC(C)N(C(=S)Nc1cccc(C(F)(F)F)c1)C(C)c1ccccn1 (configuration not stated) | 6.7 µg/mL (≈ 18.2 µM)
42 | Cc1cc(NC(=O)c2ccccc2)ccc1NC(=O)Cc1ccccc1 | 0.8 µg/mL (≈ 2.32 µM)
43 | O=C(O)c1ccc(Nc2ccc3nonc3c2[N+](=O)[O-])cc1 | 44.9 µg/mL (≈ 150 µM)
44 | COc1ccc(CNC(=S)Nc2ccc(F)c(Cl)c2)cc1 | 1.8 µg/mL (≈ 5.54 µM)
45 | CS(=O)(=O)c1ccc(NCCN2CCOCC2)c([N+](=O)[O-])c1 | 44.4 µg/mL (≈ 135 µM)
46 | COc1ccc(S(=O)(=O)N2CC(C)N(C(=O)N(C)C)C2C)cc1 (configuration not stated) | > 51.2 µg/mL
47 | Cc1sc2ncnc(NCC(O)c3ccc([N+](=O)[O-])cc3)c2c1C (configuration not stated) | 5.5 µg/mL (≈ 16 µM)
48 | CCN1C(=O)C(=Cc2cc(C)n(C3CC3)c2C)C(=O)N(CC)C1=S | 2.8 µg/mL (≈ 8.1 µM)

Row | SMILES | solubility kinetic
49 | Cc1cc(C(=O)OCC(N)=O)c(C)n1-c1ccccc1 | 40.1 µg/mL (≈ 147 µM)
50 | Cc1ccc(NC(=O)C2Cc3ccccc3O/C2=N\O)cc1C (configuration not stated) | 3.8 µg/mL (≈ 12.2 µM)
51 | CC(=O)c1ccc(NC(=O)CN2CCCC2)cc1 | > 36.9 µg/mL
52 | CC(=O)Nc1ccc(C(=O)N2CCc3cc4c(cc3C2C)OCCCO4)cc1 (configuration not stated) | > 57.1 µg/mL
53 | S=C1N[C@H]2CCCC[C@@H]2N1 | 20.8 µg/mL (≈ 133 µM)
54 | COc1cc2[nH]c(C(=O)Nc3ccc(F)cc3)cc2c(OC)c1OC | 2.4 µg/mL (≈ 6.97 µM)
55 | COCc1cc(=O)[nH]c(N2CCN(C(=O)c3ccco3)CC2)n1 | > 47.7 µg/mL
56 | COc1ccc(NC(=O)/C=N/O)cc1 | > 29.1 µg/mL
57 | O=C(NC1CC2CCCC(C1)N2C(=O)Nc1ccccc1)C1CC1 (configuration not stated) | 4.2 µg/mL (≈ 12.8 µM)
58 | CCCN=C1CC(C)(C)CC(=O)/C1=C(/O)CCC | 37.5 µg/mL (≈ 149 µM)
59 | CC(Sc1ncccn1)C(=O)NNC(=O)c1cccc(Cl)c1 (configuration not stated) | > 50.5 µg/mL
60 | CN(C)S(=O)(=O)NCCNc1ccc(C(F)(F)F)cc1[N+](=O)[O-] | 18.2 µg/mL (≈ 51.1 µM)
61 | O=[N+]([O-])c1ccc(N2CCN(Cc3cccc([N+](=O)[O-])c3)CC2)cc1 | 7.3 µg/mL (≈ 21.3 µM)
62 | Cc1ccc(OCCNC(=O)c2cccc(C)c2)cc1 | 29 µg/mL (≈ 108 µM)
63 | Cc1ccc(-c2nc3ncccc3n2O)cc1 | > 33.8 µg/mL
64 | Cl.Fc1ccc(-c2csc(Nc3ccccn3)n2)c(F)c1 | < 0.2 µg/mL
65 | CC(C)N(Cc1nc(-c2ccccc2)no1)C(=O)C(Cl)(Cl)Cl | 5.9 µg/mL (≈ 16.3 µM)
66 | COc1ccccc1NS(=O)(=O)c1ccc(C(=O)NCC(c2ccc(F)cc2)N2CCOCC2)cc1 (configuration not stated) | > 77 µg/mL
67 | CCOc1ccc(C(=O)COC(=O)CNC(=O)C2CCCCC2)cc1 | 9.5 µg/mL (≈ 27.3 µM)
68 | Fc1ccc2[nH]c3c(Cl)ncnc3c2c1 | 7.9 µg/mL (≈ 35.6 µM)
69 | CCOc1ccccc1NC(=O)Nc1cccc(S(N)(=O)=O)c1 | > 50.3 µg/mL
70 | O=S(=O)(NCc1ccccn1)c1cc(Cl)ccc1Cl | > 47.6 µg/mL
71 | O=C(NCC(c1ccco1)N1CCCCC1)c1cnc(Cl)c(Cl)c1 (configuration not stated) | > 55.2 µg/mL
72 | CCCCn1c(N)c(N(CCOC)C(=O)CSc2nnc(-c3ccco3)n2CC)c(=O)[nH]c1=O | > 73.7 µg/mL

Row | SMILES | solubility kinetic
73 | Cc1ccccc1C(=O)NC(=S)NC1CCS(=O)(=O)C1 (configuration not stated) | > 46.9 µg/mL
74 | Cl.Fc1c(F)c(F)c(N2CCNCC2)c(F)c1F | > 43.3 µg/mL
75 | O=C(O)CC1(CC(=O)Nc2ccc(C(F)(F)F)cc2)CCCC1 | > 49.4 µg/mL
76 | CN(C)C1(CNC(=O)Cc2ccccc2F)CCCCC1 | 42.2 µg/mL (≈ 144 µM)
77 | Cc1[nH]c2ccccc2c1C(=O)C(=O)NCCOc1ccccc1 | 2.2 µg/mL (≈ 6.82 µM)
78 | CCOC(=O)c1ccc(S(=O)(=O)NCCNCc2ccccc2)cc1.Cl | > 59.8 µg/mL
79 | Cc1ccc([N+](=O)[O-])cc1NC(=O)CNC1CCCCC1 | 39 µg/mL (≈ 134 µM)
80 | C=CCN(c1ccccc1OC)S(=O)(=O)c1cccc(C(=O)NCc2ccco2)c1 | 1 µg/mL (≈ 2.34 µM)
81 | N#Cc1cccc(C(=O)Nc2cccc(S(=O)(=O)N3CCCC3)c2)c1 | 5.8 µg/mL (≈ 16.3 µM)
82 | COc1ccccc1S(=O)(=O)Nc1ccc2nc(C)sc2c1 | 10.4 µg/mL (≈ 31.1 µM)
83 | Cc1ccnc(SC2CC(=O)N(c3ccc(F)cc3)C2=O)n1 (configuration not stated) | 38 µg/mL (≈ 120 µM)
84 | COc1ccc2c(c1OC)C(=O)OC2Nc1nc2ccccc2s1 (configuration not stated) | 50.4 µg/mL (≈ 147 µM)
85 | COc1ccccc1NC(=O)N1CCC(c2nc3ccccc3o2)CC1 | 44.9 µg/mL (≈ 128 µM)
86 | Nc1c(C(=O)N2CCOCC2)sc2nc3c(cc12)CCCC3 | > 47.6 µg/mL
87 | Cn1cnnc1SCC(=O)Nc1ccc(F)cc1 | > 39.9 µg/mL
88 | O=c1[nH]c2ccccc2c(O)c1O | > 26.6 µg/mL
89 | COc1ccc(CN(C)CC(=O)Nc2cccc3ccccc23)cc1F | 15.1 µg/mL (≈ 42.8 µM)
90 | O=C(Nc1ccccc1)c1cccc(Cn2cc(C(F)(F)F)ccc2=O)c1 | 2 µg/mL (≈ 5.37 µM)
91 | O=C(CCS(=O)(=O)c1ccc(Cl)cc1)NC1CCCC1 | > 47.4 µg/mL
92 | CCCCn1c(N)c(N(CC)C(=O)C2CCC2)c(=O)[nH]c1=O | > 46.3 µg/mL
93 | Cc1ccccc1C(=O)N1CCC(C(=O)Nc2nccs2)CC1 | 46.7 µg/mL (≈ 142 µM)
94 | O=C(CN1CCOCC1)NNC(=S)Nc1ccc(Cl)cc1 | > 49.3 µg/mL
95 | CCc1nc2ccccc2c(C(=O)OCC(=O)Nc2ccc(NC(C)=O)cc2)c1C | 12.1 µg/mL (≈ 29.8 µM)
96 | O=C(CCCCC(=O)NCCc1ccccc1)NCCc1ccccc1 | 2.8 µg/mL (≈ 7.94 µM)

Row | SMILES | solubility kinetic
97 | Cc1ccc(C(=O)OCC(=O)Nc2cccc(Cl)c2C)c(O)c1 | < 0.7 µg/mL
98 | CCN(C(=O)CSc1nc2ccccc2c(=O)n1-c1ccccc1F)C1CCS(=O)(=O)C1 (configuration not stated) | 9.5 µg/mL (≈ 20 µM)
99 | Clc1cc(Cl)cc(Nc2ncnc(-n3cccc3)n2)c1 | < 0.1 µg/mL
100 | O=C1c2ccccc2NC(c2ccc(F)cc2)N1Cc1ccccc1 (configuration not stated) | 1.4 µg/mL (≈ 4.21 µM)
101 | CCCS(=O)(=O)Nc1cccc(-c2cn3c(n2)SCC3)c1 | > 48.5 µg/mL
102 | COc1ccc(/C=N/Nc2nc(C)cc(=O)[nH]2)cc1OC | > 43.2 µg/mL
103 | CN1CCC(N(C)C(=O)c2cc(S(=O)(=O)N(C)c3ccccc3)ccc2Cl)CC1.Cl | > 70.9 µg/mL
104 | CC(=O)Nc1ccc(S(=O)(=O)NC(C(=O)O)C(C)O)cc1 (configuration not stated) | > 47.4 µg/mL
105 | CC(C)CCn1c(=O)c(C(=O)NCc2ccco2)c(O)c2ccccc21 | < 0.4 µg/mL
106 | COC(=O)c1ccc(NC(=S)N2CCN(C)CC2)cc1 | > 44 µg/mL
107 | CC(C)C[C@H](NC(=O)N1CCCCCC1)C(=O)O | > 38.5 µg/mL
108 | O=c1c2ccccc2[nH]c(=S)n1-c1cccnc1 | 7.6 µg/mL (≈ 29.8 µM)
109 | CCOc1cccc(/C=C/c2ccc3cccc(O)c3n2)c1OC | < 0.7 µg/mL
110 | CN1CCN(CCOc2ccc(Cc3ccccc3)cc2)CC1.Cl | 40.4 µg/mL
111 | CC(=O)Nc1ccc(S(=O)(=O)NC2C3(C)CCC(C3)C2(C)C)cc1 (configuration not stated) | < 0.4 µg/mL
112 | COc1ccccc1C(=O)COC(=O)CN1C(=O)c2ccccc2C1=O | 6.4 µg/mL (≈ 18.1 µM)
113 | CC(=O)c1cc(Cl)ccc1OCC(=O)NC1CCCC1 | > 44.4 µg/mL
114 | COC(=O)c1c(C)nc2nonc2c1N | 30 µg/mL (≈ 144 µM)
115 | Cc1nc(CCNS(=O)(=O)c2cccnc2)cs1 | > 42.5 µg/mL
116 | Cc1ccc(S(=O)(=O)N2CCOCC2)cc1C(=O)N1CCc2ccccc21 | 54.3 µg/mL (≈ 141 µM)
117 | O=C(Nc1ccc(Nc2ccccc2)cc1)c1ccccc1F | 1.5 µg/mL (≈ 4.9 µM)
